Each structure is given as a SMILES string. Values after ≈ are worked out from the molar mass of the structure shown. Read-outs that look alike come from different tables or passages of the source. A value given as a limit tells only on which side of the number the result lay.

One experiment concerns WT ATCC 29212 EFS.43. The experiment is described as follows: microbe, parasite or virus in culture. Here is the method:
(§1) The activity of paenibacterin against several strains of Gram-positive and Gram-negative foodborne pathogens is summarized in Table 10. The data is reported as minimum inhibitory concentrations (MIC) as an average of three replicates for paenibacterin against the various listed bacterial strains. […] MICs were determined according to the CLSI broth microdilution method (see, Clinical and Laboratory Standards Institute (CLSI). 2009. Methods for dilution antimicrobial susceptibility tests for bacteria that grow aerobically; approved standard. […]. CLSI, Wayne, Pa.). Briefly, HPLC-purified paenibacterin was dissolved in methanol and diluted to appropriate concentration with cation-adjusted Mueller-Hinton II broth (Difco). Aliquots (25 μl) of serially-diluted paenibacterin was dispensed into wells of a 96-well plate; an equal amount of 1/10 diluted overnight bacterial culture was added to wells. Plates were incubated at 35° C. for 24 h. Cell growth after incubation was examined and determined using a microtiter plate reader at 600 nm. Concentration of paenibacterin is determined based on a molecular weight of 1604 Da.
(§2) The activity of paenibacterin was further tested against clinical isolates of the following Gram-positive bacteria: methicillin-sensitive Staphylococcus aureus (MSSA), methicillin-resistant S. aureus (MRSA), vancomycin-sensitive Enterococcus faecalis, vancomycin-resistant E. faecalis (VRE), Streptococcus pneumoniae, and laboratory derived daptomycin-resistant (DR) MSSA, MRSA, and VRE strains. The MICs were determined using the above described CLSI broth microdilution method, in which the method was performed with non-binding surface coated (NBS) 96-well plates.

Experiment [1] relates to DS-VRE ATCC 700802 EFS.807. Description: microbe, parasite or virus in culture. Here is the method: as §1, §2
The test system of a further experiment is MSSA ATCC 29213 SAU.42. The experiment is described as follows: microbe, parasite or virus in culture. Here is the method: as §1, §2
For another experiment, the system named is ATCC 25922 ECO.35. The experiment is described as follows: MIC, CLSI broth microdilution, Gram-negative clinical isolates. The experiment is classed as cell-based, Escherichia coli. The settings on record: Escherichia coli, read-out: Minimum inhibitory concentration (MIC). Here is the method:
(§3) Plates were incubated at 35° C. for 24 h.
(§4) The activity of paenibacterin was also tested against clinical isolates of the following Gram-negative bacterial strains: four strains of the species Pseudomonas aeruginosa (PAE), three strains of the species Acinetobacter baumannii (ABA), two strains of the species Escherichia coli (ECO), and four strains of the species Klebsiella pneumoniae (KPN). Particularly, the strains of Gram-negative bacteria included polymyxin B-resistant (PMB-R) and polymyxin B-sensitive (PMB-S) strains of each above listed species. The MICs were determined using the above described CLSI broth microdilution method, in which the method was performed with both non-binding surface coated (NBS) and polystyrene (PS) 96-well plates (Tables 11 and 12, respectively). The MICs were generally lower in the NBS 96-well plates as compared to the PS 96-well plates.
(In general: Dilution methods test growth across graded concentrations, often in twofold steps.)

The test system of another experiment is ECO.2276. The description is as above. The class given is cell-based, Escherichia coli. The settings on record: Escherichia coli, read-out: Minimum inhibitory concentration (MIC). As to the method: as §3, §4
A further experiment relates to KPN.2317. Described as above. The experiment is classed as cell-based, Klebsiella pneumoniae. The note with it: for MIC: Klebsiella pneumoniae, read-out: Minimum inhibitory concentration (MIC). Here is the method:
as §3, §4

In another experiment the test system is KPN.674. Described as above. The experiment is classed as cell-based, Klebsiella pneumoniae. The note with it: Klebsiella pneumoniae, read-out: Minimum inhibitory concentration (MIC). Here is the method: as §3, §4
The test system of a further experiment is PMB-S, KPN.2461. Described as above. The experiment is classed as cell-based, Klebsiella pneumoniae. As to the method: as §3, §4
The next experiment has as its system PMB-R, KPN.2463. The description is as above. The class given is cell-based, Klebsiella pneumoniae. As to the method: as §3, §4
For a further experiment, the system named is ABA.2315. Described as above. The class given is cell-based, Acinetobacter baumannii. Here is the method: as §3, §4
For the next experiment, the system named is ABA.2232. Described as above. The class given is cell-based, Acinetobacter baumannii. The settings on record: Acinetobacter baumannii, read-out: Minimum inhibitory concentration (MIC). Here is the method:
as §3, §4

A further experiment relates to ABA.1570. The description is as above. The experiment is classed as cell-based, Acinetobacter baumannii. The settings on record: Acinetobacter baumannii, read-out: Minimum inhibitory concentration (MIC). Here is the method: as §3, §4
A further experiment has as its system PAE.44. The experiment is described as above. The class given is cell-based, Pseudomonas aeruginosa. The settings on record: Pseudomonas aeruginosa, non-binding surface coated (NBS) 96-well plates, read-out: Minimum inhibitory concentration (MIC). Here is the method:
as §3, §4

For a further experiment, the system named is PAE.999. The experiment is described as above. The experiment is classed as cell-based, Pseudomonas aeruginosa. The settings on record: Pseudomonas aeruginosa, read-out: Minimum inhibitory concentration (MIC). Here is the method: as §3, §4
The subject of the next experiment is PAE.2325. Described as above. The experiment is classed as cell-based, Pseudomonas aeruginosa. The note with it: Pseudomonas aeruginosa, read-out: Minimum inhibitory concentration (MIC). Here is the method:
as §3, §4

In another experiment the test system is PAE.2281. The description is as above. The class given is cell-based, Pseudomonas aeruginosa. The note with it: Pseudomonas aeruginosa, read-out: Minimum inhibitory concentration (MIC). Here is the method: as §3, §4
The subject of experiment [2] is DR-MSSA from SAU.42 SAU.278. Description: microbe, parasite or virus in culture. The note with it: SAU.278, DR-MSSA from SAU.42; NBS 96-well plates. As to the method:
as §1, §2

Another experiment has as its system MRSA ATCC 43300 SAU.399. The experiment is described as follows: microbe, parasite or virus in culture. The settings on record: ATCC 43300. As to the method: as §1, §2
Experiment [3] relates to DR-VRE from EFS.807 EFS.2731. Description: microbe, parasite or virus in culture. The note with it: EFS.2731, DR-VRE from EFS.807; NBS 96-well plates. Here is the method:
as §1, §2

Experiment [4] concerns DR-MRSA from MW2 SP SAU.1616. Description: microbe, parasite or virus in culture. The settings on record: SAU.1616, DR-MRSA from MW2 SP; NBS 96-well plates. As to the method:
as §1, §2

Another experiment relates to WT ATCC 49619 SPN.31. Description: microbe, parasite or virus in culture. The settings on record: ATCC 49619. As to the method: as §1, §2

In the case of `C[C@@H](O)[C@H]1C(=O)N2C(C(=O)O)=C(S[C@@H]3CN[C@H](C(=O)N(C)C)C3)[C@H](C)[C@H]12` [meropenem #413, meropenem], the MIC was 2 µg/mL (≈ 5.22 µM) in the experiment with WT ATCC 29212 EFS.43 (Enterococcus faecalis, ATCC29212, read-out: Minimum inhibitory concentration (MIC)); 4 µg/mL (≈ 10.4 µM) in [1] (Enterococcus faecalis, ATCC700802|VRE, read-out: Minimum inhibitory concentration (MIC)); 0.125 µg/mL (≈ 0.326 µM) with MSSA ATCC 29213 SAU.42 (Staphylococcus aureus, ATCC29213|MSSA, read-out: Minimum inhibitory concentration (MIC)); 0.03 µg/mL (≈ 0.0782 µM) with ATCC 25922 ECO.35 (ATCC25922, ECO.35 (ATCC 25922), NBS 96-well plates); 0.016 µg/mL (≈ 0.0417 µM) with ATCC 25922 ECO.35 (ATCC25922, ECO.35, PS 96-well plates); 0.03 to 0.06 µg/mL (≈ 0.0782 to 0.156 µM) with ECO.2276 (NBS 96-well plates). The MIC was 0.03 µg/mL (≈ 0.0782 µM) in the experiment with ECO.2276 (PS 96-well plates); 0.0625 µg/mL (≈ 0.163 µM) in the experiment with KPN.2317 (NBS 96-well plates); 0.03 µg/mL (≈ 0.0782 µM) in the experiment on KPN.2317 (PS 96-well plates); 0.0625 µg/mL (≈ 0.163 µM) with KPN.674 (NBS 96-well plates); 0.03 µg/mL (≈ 0.0782 µM) in the experiment with KPN.674 (PS 96-well plates); greater than 8 µg/mL in the experiment with PMB-S, KPN.2461 (Klebsiella pneumoniae, KPN.2461 (PMB-S), NBS 96-well plates, read-out: Minimum inhibitory concentration (MIC)). In addition, the MIC in the experiment with PMB-R, KPN.2463 (Klebsiella pneumoniae, KPN.2463 (PMB-R), NBS 96-well plates, read-out: Minimum inhibitory concentration (MIC)) was greater than 8 µg/mL; in the experiment with ABA.2315 (Acinetobacter baumannii, NBS 96-well plates, read-out: Minimum inhibitory concentration (MIC)), greater than 8 µg/mL; in the experiment with ABA.2232 (NBS 96-well plates) it was 0.125 to 0.25 µg/mL (≈ 0.326 to 0.652 µM); in the experiment with ABA.2232 (PS 96-well plates), 0.5 µg/mL (≈ 1.3 µM); with ABA.1570 (NBS 96-well plates), 8 µg/mL (≈ 20.9 µM); with ABA.1570 (PS 96-well plates) it was greater than 8 µg/mL. Further, the MIC in the experiment on PAE.44 is 1 µg/mL (≈ 2.61 µM); in the experiment with PAE.999 (NBS 96-well plates), greater than 8 µg/mL; with PAE.999 (PS 96-well plates), greater than 8 µg/mL; in the experiment on PAE.2325 (NBS 96-well plates) it was 2 to 4 µg/mL (≈ 5.22 to 10.4 µM); in the experiment on PAE.2325 (PS 96-well plates) it was 2 µg/mL (≈ 5.22 µM); with PAE.2281 (NBS 96-well plates) it was 1 to 2 µg/mL (≈ 2.61 to 5.22 µM). The MIC in the experiment on PAE.2281 (PS 96-well plates) is 0.5 µg/mL (≈ 1.3 µM). Further, the “Minimum inhibitory concentration (MIC)” value is 0.06 µg/mL (≈ 0.156 µM) with KPN.2317 (NBS 96-well plates); greater than 8 µg/mL in the experiment with PMB-S, KPN.2461 (KPN.2461, PS 96-well plates); greater than 8 µg/mL in the experiment with PMB-R, KPN.2463 (KPN.2463, PS 96-well plates); greater than 8 µg/mL with ABA.2315 (PS 96-well plates).
With `CCCCCCCCCC(=O)N[C@@H](Cc1c[nH]c2ccccc12)C(=O)N[C@H](CC(N)=O)C(=O)N[C@@H](CC(=O)O)C(=O)N[C@@H]1C(=O)NCC(=O)N[C@@H](CCCN)C(=O)N[C@@H](CC(=O)O)C(=O)N[C@H](C)C(=O)N[C@@H](CC(=O)O)C(=O)NCC(=O)N[C@H](CO)C(=O)N[C@@H]([C@H](C)CC(=O)O)C(=O)N[C@@H](CC(=O)c2ccccc2N)C(=O)O[C@@H]1C` [daptomycin], the “Minimum inhibitory concentration (MIC)” value in experiment [2] is 8 µg/mL (≈ 4.94 µM); in the experiment on MRSA ATCC 43300 SAU.399 it was 0.5 µg/mL (≈ 0.309 µM); in the experiment with WT ATCC 29212 EFS.43 (ATCC 29212) it was 2 µg/mL (≈ 1.23 µM); in [3] it was greater than 32 µg/mL; in experiment [4] it was 16 µg/mL (≈ 9.87 µM); in experiment [1] (ATCC 700802), 1 µg/mL (≈ 0.617 µM). Also, the “Minimum inhibitory concentration (MIC)” value in the experiment on WT ATCC 49619 SPN.31 and in the experiment on MSSA ATCC 29213 SAU.42 (ATCC 29213) was 0.5 µg/mL (≈ 0.309 µM) in each case.

For the origin of these results see US9017692B2, “Antimicrobial agent, bacterial strain, biosynthesis, and methods of use” (priority 2011, dated 2015).
